# Laboratory results as given in patent US20230413824A1, “AGROCHEMICAL COMPOSITION COMPRISING 3-SUBSTITUTED PHENYLAMIDINE COMPOUNDS AND USE THEREOF” (PI INDUSTRIES LIMITED, priority 2020, published 2023).
# Where “and” joins values, the source holds several entries; their conditions need not be identical. Identical values can stand only once. Like-named read-outs stand apart in the source and are kept apart here.
# Legend:
# Assay type in all cases: in vivo
# Alternaria solani = Alternaria solani test in tomato (preventive, glasshouse); details: for pest or weed control at 0.05 ppm / pest or weed control at 0.1 ppm: Alternaria solani, read-out: Observed Efficacy (%)
# Phakopsora pachyrhizi = Phakopsora pachyrhizi test in soybean (preventive, glasshouse); details: single compound; for pest or weed control at 0.05 ppm / pest or weed control at 0.1 ppm: Phakopsora pachyrhizi, read-out: Observed Efficacy (%)
# Septoria nodorum = test: Parastagonospora nodorum/Septoria nodorum/Stagnospora nodorum test in wheat (preventive, glasshouse); details: single compound
# Procedure: The single compounds or compound combinations were dissolved in 2% DMSO/Acetone and then mixed with water containing emulsifier to a calibrated spray volume of 50 mL. The spray solutions were poured into spray bottles for further applications.
# To test the preventive activity of compounds, healthy young wheat plants, raised in the greenhouse, were sprayed with the single compound or mixture preparation at the stated application rates inside the spray cabinets using hollow cone nozzles. One day after treatment, the plants were inoculated with a suspension containing 2.8×10^6 Stagnospora nodorum inoculum. The inoculated plants were then kept in a greenhouse chamber at 22-25° C. temperature and 90-100% relative humidity for disease expression.
# A visual assessment of the performance of the compounds and respective compound combinations was carried out by rating the disease severity (0-100% scale) on treated plants 3, 7 and 10 days after application. Efficacy (% control) of the compounds was calculated by comparing the disease rating in the treatment with the one of the untreated control. The compounds were also assessed for their plant compatibility by recording symptoms like necrosis, chlorosis & stunting. The results are shown for the compound of formula (I-1) to (I-5) in Table E1-E5.
# Botrytis cinerea = Botrytis cinerea test in tomato (preventive, glasshouse); details: single compound; for pest or weed control at 0.05 ppm / pest or weed control at 0.1 ppm: Botrytis cinerea, read-out: Observed Efficacy (%)
# Erysiphe cichoracearum = Erysiphe cichoracearum test in cucumber (preventive, glasshouse); details: single compound; for pest or weed control at 0.05 ppm / pest or weed control at 0.1 ppm: Golovinomyces cichoracearum, read-out: Observed Efficacy (%)
# Pyricularia oryzae = test: whole plant or invertebrate; details: single compound, preventive spray, rice
# [1] = Table B3, single compound, Conc. 0.05 ppm, preventive
# [2] = Table B3, single compound, Conc. 0.1 ppm, preventive
# [3] = Table B4, single compound, Conc. 0.05 ppm, preventive
# [4] = Table B4, single compound, Conc. 0.1 ppm, preventive
# [5] = single compound, 0.05 ppm, preventive
# [6] = single compound, 0.05 ppm, preventive spray
# [7] = single compound, 0.1 ppm, preventive
# [8] = single compound, 0.1 ppm, preventive spray
# [9] = single compound, Conc. 0.05 ppm, preventive spray
# [10] = 0.05 ppm, preventive spray on soybean
# [11] = 0.1 ppm, preventive spray on soybean
# [12] = Conc. 0.05 ppm, soybean, preventive, Table D4
# [13] = Conc. 0.1 ppm, soybean, preventive, Table D4
# [14] = Conc. 0.1 ppm, preventive spray on tomato, % control vs untreated
# [15] = 0.05 ppm, preventive spray on cucumber
# [16] = 0.1 ppm, preventive spray on cucumber
# [17] = Conc. 0.05 ppm, soybean, preventive, Table D5
# [18] = Conc. 0.1 ppm, soybean, preventive, Table D5
# [19] = Table F4, Conc. 0.05 ppm, Botrytis cinerea in tomato, preventive
# [20] = Table F4, Conc. 0.1 ppm, Botrytis cinerea in tomato, preventive
# [21] = Table F5, Conc. 0.05 ppm, Botrytis cinerea in tomato, preventive
# [22] = Table F5, Conc. 0.1 ppm, Botrytis cinerea in tomato, preventive
# [23] = Conc. 0.05 ppm, preventive spray on tomato, % control vs untreated
# [24] = Parastagonospora nodorum, 0.1 ppm, read-out: Observed Efficacy (%)
Compound,Observed Efficacy (%) (Alternaria solani; [1]),Observed Efficacy (%) (Alternaria solani; [2]),Observed Efficacy (%) (Alternaria solani; [3]),Observed Efficacy (%) (Alternaria solani; [4]),Observed Efficacy (%) (Alternaria solani; [5]),Observed Efficacy (%) (Alternaria solani; [6]),Observed Efficacy (%) (Alternaria solani; [7]),Observed Efficacy (%) (Alternaria solani; [8]),Observed Efficacy (%) (Phakopsora pachyrhizi; [10]),Observed Efficacy (%) (Phakopsora pachyrhizi; [11]),Observed Efficacy (%) (Phakopsora pachyrhizi; [12]),Observed Efficacy (%) (Phakopsora pachyrhizi; [13]),Observed Efficacy (%) (Septoria nodorum; 0.05 ppm),Observed Efficacy (%) (Septoria nodorum; 0.1 ppm),Observed Efficacy (%) (Botrytis cinerea; [14]),"Observed Efficacy (%) (Erysiphe cichoracearum; 0.05 ppm, cucumber, preventive)",Observed Efficacy (%) (Erysiphe cichoracearum; [15]),Observed Efficacy (%) (Erysiphe cichoracearum; [16]),Observed Efficacy (%) (Botrytis cinerea; [19]),Observed Efficacy (%) (Botrytis cinerea; [20]),also measured
"Cn1cc(C(=O)Nc2ccc(F)cc2-c2ccc(Cl)c(Cl)c2)c(C(F)F)n1 [Bixafen, bixafen]",11%,29%,11%,29%,11%,11%,29%,29%,15%,22%,15%,22%,18%,29%,48%,–,–,–,–,–,"Observed Efficacy (Alternaria solani; [9]): 11%; Observed Efficacy (Alternaria solani; single compound, Conc. 0.1 ppm, preventive spray): 29%"
propineb,–,–,20%,31%,20%,20%,–,31%,20%,33%,20%,33%,12%,24%,22%,14%,14%,43%,15%,22%,"Observed Efficacy (Alternaria solani; [9]): 20%; Observed Efficacy (%) (Erysiphe cichoracearum; 0.1 ppm, cucumber, preventive): 43%; Observed Efficacy (%) (Phakopsora pachyrhizi; [17]): 20%; Observed Efficacy (%) (Phakopsora pachyrhizi; [18]): 33%; Observed Efficacy (%) (Botrytis cinerea; [21]): 15%; Observed Efficacy (%) (Botrytis cinerea; [22]): 22%; Observed Efficacy (%) (Botrytis cinerea; [23]): 15%"
metiram,–,–,26%,30%,–,26%,–,30%,17%,–,17%,37%,–,–,57%,47%,47%,55%,40%,57%,"Observed Efficacy (Pyricularia oryzae; Conc. 0.05 ppm): 16%; Observed Efficacy (Pyricularia oryzae; Conc. 0.1 ppm): 18%; Observed Efficacy (%) (Erysiphe cichoracearum; 0.1 ppm, cucumber, preventive): 55%; Observed Efficacy (%) (Botrytis cinerea; [23]): 40%"
C[C@@H]1CC(C)(C)c2cccc(NC(=O)c3cn(C)nc3C(F)F)c21 [Inpyrfluxam],–,–,14%,23%,–,14%,–,23%,18%,30%,18%,30%,12%,29%,38%,29%,29%,38%,25%,38%,"Observed Efficacy (%) (Erysiphe cichoracearum; 0.1 ppm, cucumber, preventive): 38%; Observed Efficacy (%) (Botrytis cinerea; [21]): 25%; Observed Efficacy (%) (Botrytis cinerea; [22]): 38%; Observed Efficacy (%) (Botrytis cinerea; [23]): 35% and 25%"
O=[N+]([O-])c1cc(C(F)(F)F)c(Cl)c([N+](=O)[O-])c1Nc1ncc(C(F)(F)F)cc1Cl [Fluazinam],7%,16%,7%,16%,7%,–,16%,–,–,–,2%,10%,–,–,–,–,11%,18%,29%,38%,"pest or weed control at 0.05 ppm (Alternaria solani; [6]): 7%; pest or weed control at 0.1 ppm (Alternaria solani; [8]): 16%; pest or weed control at 0.05 ppm (Erysiphe cichoracearum; 0.05 ppm, cucumber, preventive): 11%; pest or weed control at 0.1 ppm (Erysiphe cichoracearum; 0.1 ppm, cucumber, preventive): 18%; pest or weed control at 0.05 ppm (Phakopsora pachyrhizi; [10]): 2%; pest or weed control at 0.1 ppm (Phakopsora pachyrhizi; [11]): 10%; Observed Efficacy (%) (Phakopsora pachyrhizi; [17]): 2%; Observed Efficacy (%) (Phakopsora pachyrhizi; [18]): 10%; pest or weed control at 0.1 ppm (Septoria nodorum; [24]): 21%; pest or weed control at 0.05 ppm (Botrytis cinerea; [23]): 29%; pest or weed control at 0.1 ppm (Botrytis cinerea; [14]): 38%"
O=C(NCCc1ncc(C(F)(F)F)cc1Cl)c1ccccc1C(F)(F)F [Fluopyram],26%,35%,26%,35%,26%,–,35%,–,–,–,7%,10%,–,–,–,–,–,–,38%,45%,"pest or weed control at 0.05 ppm (Alternaria solani; [6]): 26%; pest or weed control at 0.1 ppm (Alternaria solani; [8]): 35%; pest or weed control at 0.05 ppm (Erysiphe cichoracearum; [15]): 32%; pest or weed control at 0.1 ppm (Erysiphe cichoracearum; [16]): 39%; pest or weed control at 0.05 ppm (Phakopsora pachyrhizi; [10]): 7%; pest or weed control at 0.1 ppm (Phakopsora pachyrhizi; [11]): 10%; Observed Efficacy (%) (Phakopsora pachyrhizi; [17]): 7%; Observed Efficacy (%) (Phakopsora pachyrhizi; [18]): 10%; pest or weed control at 0.05 ppm (Septoria nodorum; Parastagonospora nodorum, 0.05 ppm, read-out: Observed Efficacy (%)): 8%; pest or weed control at 0.1 ppm (Septoria nodorum; [24]): 21%; pest or weed control at 0.05 ppm (Botrytis cinerea; [23]): 38%; pest or weed control at 0.1 ppm (Botrytis cinerea; [14]): 45%"
